Assays:
human AML CD34+ cells = assay: Cell cycling, apoptosis and cell growth of AML CD34+ cells with Ara-c and Doxo; assay type: cell-based; details: 500 nM combined with Ara-c and Doxo
Procedure: AML CD34+ cells were cultured with CpG-anti-miR-126 or CpG-SCR (500 nM) for 48 hours, then furthered cultured with miR126 inh+Ara-c+Doxo or SCR+A+D for 72 hours, then cell cycling, apoptosis (FIG. 12B) and cell growth (FIG. 12C) were analyzed.

mouse CML LSC = assay: In vivo treatment of transplanted CML mice in combination with NIL; details: 5 mg/kg i.v. 4 times a week plus NIL 50 mg/kg daily by gavage, 3 weeks
Procedure: FIGS. 24A-24I. […] BM cells from SCL-tTA/BCR-ABL mice (CD45.2) were transplanted into congenic B6 mice (CD45.1, n=40) to generate a cohort of mice with CML-like disease. Following confirmation of CML development at 4 weeks after transplantation, mice were randomly divided into 4 groups (n=10 each) and treated with CpG-miR-126 inhibitor (5 mg/kg i.v. 4 times a week), CpG-scrRNA (5 mg/kg, i.v. 4 times a week), CpG-miR-126 inhibitor plus NIL (50 mg/kg, daily by gavage), and CpG-scrRNA plus NIL for 3 weeks. Percentage of donor CML cells in peripheral blood (PB) (FIG. 24A), spleen (FIG. 24B) and bone marrow (BM) (FIG. 24C), numbers of donor CML LSK in spleen (FIG. 24D) and BM (FIG. 24E), and numbers of donor CML long term hematopoietic stem cells (LTHSC) in spleen (FIG. 24F) and BM (FIG. 24G) after 3 weeks' treatment were measured. […] The recipient mice were monitored for 16 weeks for CML cell engraftment in blood and leukemia development by WBC count. Frequency of LIC was quantified using L-Calc software (FIG. 24I). […]
BM cells from SCL-tTA/BCR-ABL mice (CD45.2) were transplanted into congenic B6 mice (CD45.1, n=40) to generate a cohort of mice with CML-like disease. […] The recipient mice were monitored for 16 weeks for CML cell engraftment in blood and leukemia development by WBC count. Frequency of LIC was quantified using L-Calc software (FIG. 24I). […]

[1] = system: Mouse CML leukemia stem cells (LSC, Lin-Sca-1+c-kit+Fit3-CD150+CD48-); assay: Apoptosis and cell growth of mouse CML leukemia stem cells; assay type: cell-based; details: combined with NIL, compared with CpG-SCR+NIL
Procedure: Mouse CML leukemia stem cells (LSC, Lin-Sca-1+c-kit+Fit3-CD150+CD48-) were sorted and treated with CpG-anti-miR-126 inhibitor or CpG-SCR (500 nM) for 48 hours, then furthered treated with miR126 inhibitor+NIL or SCR+NIL for 72 hours, then apoptosis and cell growth were measured.

miR126 = assay: miRNA 126 expression in AML and CML cell lines by Q-RT-PCR; assay type: cell-based, human; details: 500 nM, 24 hours
Procedure: FIGS. 4A-4G are bar graphs showing miRNA 126 expression in AML and CML cell lines. Cells were cultured with miR126-inhibitor-Cy3 (Cy3-200 nM0, human CD45 (Ab-200 nM) or Transferrin (TF-200 nM)-conjugated NP containing antagomiR-126-Cy3, CpG-miR126 inhibitor-Cy3 (CpG-Cy3-200 nM and 500 nM) for 24 hours, then miR126 and RNU44 (control) expression in these cells was analyzed by q-RT PCR. The miR126 expression levels were normalized to RNU44 and calculated by using the comparative 2^−ΔΔct method. FIG. 4A is a bar graph showing miRNA 126 expression in the K562 CML cell line. FIG. 4B is a bar graph showing miRNA 126 expression in the KG1A AML cell line. FIG. 4C is a bar graph showing miRNA 126 expression in the MV4-11 AML cell line. FIG. 4D is a bar graph showing the miRNA 126 expression in the Molm13 AML cell line. FIG. 4E is a bar graph showing the miRNA 126 expression in the NB4 AML cell line. […]
miRNA 126 expression in AML and CML lines was evaluated. CML (K562) (FIG. 4A) and AML cell lines (KG1A, MV4-11, Molm13, NB4, OCI and HL60) (FIGS. 4B-4G) were cultured with anti-miR126 inhibitor-Cy3 (Cy3 ctrl, 200 nM), human CD45 (Ab-NP, 200 nM) or Transferrin (TF-NP, 200 nM)-conjugated NP containing anti-miR-126-Cy3, or CpG-anti-miR126 inhibitor-Cy3 (CpG-200 nM and 500 nM) for 24 hours, then miR126 and RNU44 (control) expression in these cells were analyzed by Q-RT-PCR.

[2] = compared with Ara-c and Doxo alone

5′ G*G*T GCA TCG ATG CAGG*G*G* G*G (SEQ ID NO: 1) xxxxx mCmGmC mAmUmU mAmUmU mAmCmU mCmAmC mGmGmU mAmCmG mA (SEQ ID NO: 17) 3′ [CpG-anti-miR126]
cell growth (human AML CD34+ cells): reduction of cell growth
apoptosis (human AML CD34+ cells; [2]): significantly increased
cell cycling (human AML CD34+ cells; [2]): significantly increased
elimination of mouse CML LSC (mouse CML LSC): enhances elimination of mouse CML LSC
apoptosis of LSC [1]: significantly increased apoptosis
cell growth of LSC [1]: significant reduction of cell growth
downregulation of miRNA126 (miR126; all tested human AML and CML cell lines): most effective downregulation
reduction of target miRNA expression (miR126; HL60, K562, MV4-11, MOLM13 and OCI cells): more than 50%
